Results as given in the supplement of paper PMC10307832.

Tests used:
Experiment in all cases: relative viability (nuclei count vs DMSO), 5 days (fraction); higher = more cells survive
[1] = test system: HCC-15
Summary of the method: (§1)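 After 5 days of treatment, lung cancer cells in 1536-well plates were fixed and stained in a single step (final 0.05% Triton X-100, 1% formaldehyde, 1 ug/ml Hoechst) and their nuclei counted on 4× images. Treatment had been applied by pin tool the day after seeding as one drug alone or as a fixed anchor-drug dose with five library-drug doses (not always all listed) in √10 steps. Relative viability is the nuclei count of treated wells divided by that of vehicle wells, and values are medians of duplicate plates.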

[2] = test system: COR-L 105
Summary of the method: as §1

[3] = test system: HCC-78
Summary of the method: as §1

[4] = test system: NCI-H1755
Summary of the method: as §1

[5] = test system: ABC-1
Summary of the method: as §1

[6] = test system: NCI-H1993
Summary of the method: as §1

[7] = test system: UMC-11
Summary of the method: as §1

[8] = test system: NCI-H1975
Summary of the method: as §1

[9] = test system: NCI-H322M
Summary of the method: as §1

[10] = test system: NCI-H441
Summary of the method: as §1

[11] = test system: EMC-BAC-2
Summary of the method: as §1

[12] = test system: NCI-H358
Summary of the method: as §1

[13] = test system: EPLC-272H
Summary of the method: as §1

[14] = test system: NCI-H2085
Summary of the method: as §1

[15] = test system: HOP-62
Summary of the method: as §1

[16] = test system: NCI-H3122
Summary of the method: as §1

[17] = test system: NCI-H2023
Summary of the method: as §1

[18] = test system: NCI-H2126
Summary of the method: as §1

[19] = test system: CAL-12T
Summary of the method: as §1

[20] = test system: LXF-289
Summary of the method: as §1

[21] = test system: NCI-H1666
Summary of the method: as §1

[22] = test system: NCI-H1915
Summary of the method: as §1

O=C(O)c1ccc(-c2c[nH]c3ncc(-c4ccccc4)cc23)cc1C1CCCC1 + C[C@]1(O)C[C@@H](c2nc(-c3ccc4ccc(-c5ccccc5)nc4c3)c3c(N)nccn32)C1 [Linsitinib] (partner 1 µM)
relative viability ([1]; first compound 0.04 µM): 0.869 | relative viability ([1]; first compound 0.1265 µM): 0.928 | relative viability ([1]; first compound 0.4 µM): 0.785 | relative viability ([1]; first compound 1.265 µM): 0.567 | relative viability ([2]; first compound 0.04 µM): 1.07 | relative viability ([2]; first compound 0.1265 µM): 0.919 | relative viability ([2]; first compound 0.4 µM): 1 | relative viability ([2]; first compound 1.265 µM): 0.92 | relative viability ([3]; first compound 0.04 µM): 0.431 | relative viability ([3]; first compound 0.1265 µM): 0.571 | relative viability ([3]; first compound 0.4 µM): 0.545 | relative viability ([3]; first compound 1.265 µM): 0.534 | relative viability ([4]; first compound 0.04 µM): 0.96 | relative viability ([4]; first compound 0.1265 µM): 1.01 | relative viability ([4]; first compound 0.4 µM): 1.02 | relative viability ([4]; first compound 1.265 µM): 0.961 | relative viability ([5]; first compound 0.04 µM): 0.753 | relative viability ([5]; first compound 0.1265 µM): 0.808 | relative viability ([5]; first compound 0.4 µM): 0.962 | relative viability ([5]; first compound 1.265 µM): 0.716 | relative viability ([6]; first compound 0.04 µM): 0.745 | relative viability ([6]; first compound 0.4 µM): 0.681 | relative viability ([6]; first compound 1.265 µM): 0.753 | relative viability ([7]; first compound 0.04 µM): 0.98 | relative viability ([7]; first compound 0.1265 µM): 1.04 | relative viability ([7]; first compound 0.4 µM): 1.07 | relative viability ([7]; first compound 1.265 µM): 0.971 | relative viability ([8]; first compound 0.04 µM): 0.903 | relative viability ([8]; first compound 0.1265 µM): 0.935 | relative viability ([8]; first compound 0.4 µM): 0.951 | relative viability ([8]; first compound 1.265 µM): 1 | relative viability ([9]; first compound 0.04 µM): 0.913 | relative viability ([9]; first compound 0.1265 µM): 0.911 | relative viability ([9]; first compound 0.4 µM): 0.92 | relative viability ([9]; first compound 1.265 µM): 0.791 | relative viability ([10]; first compound 0.04 µM): 0.666 | relative viability ([10]; first compound 0.1265 µM): 0.674 | relative viability ([10]; first compound 0.4 µM): 0.563 | relative viability ([10]; first compound 1.265 µM): 0.531 | relative viability ([11]; first compound 0.04 µM): 0.823 | relative viability ([11]; first compound 0.1265 µM): 0.866 | relative viability ([11]; first compound 0.4 µM): 0.819 | relative viability ([11]; first compound 1.265 µM): 0.79 | relative viability ([12]; first compound 0.04 µM): 0.649 | relative viability ([12]; first compound 0.1265 µM): 0.819 | relative viability ([12]; first compound 0.4 µM): 0.674 | relative viability ([12]; first compound 1.265 µM): 0.386 | relative viability ([13]; first compound 0.04 µM): 1.16 | relative viability ([13]; first compound 0.1265 µM): 1.19 | relative viability ([13]; first compound 0.4 µM): 1.42 | relative viability ([13]; first compound 1.265 µM): 0.857 | relative viability ([14]; first compound 0.04 µM): 0.938 | relative viability ([14]; first compound 0.1265 µM): 1.01 | relative viability ([14]; first compound 0.4 µM): 0.8 | relative viability ([14]; first compound 1.265 µM): 0.644 | relative viability ([15]; first compound 0.04 µM): 1.1 | relative viability ([15]; first compound 0.1265 µM): 1.03 | relative viability ([15]; first compound 0.4 µM): 1.04 | relative viability ([15]; first compound 1.265 µM): 0.794 | relative viability ([16]; first compound 0.04 µM): 0.966 | relative viability ([16]; first compound 0.1265 µM): 1.02 | relative viability ([16]; first compound 0.4 µM): 0.942 | relative viability ([16]; first compound 1.265 µM): 0.838 | relative viability ([17]; first compound 0.04 µM): 0.699 | relative viability ([17]; first compound 0.1265 µM): 0.665 | relative viability ([17]; first compound 0.4 µM): 0.734 | relative viability ([17]; first compound 1.265 µM): 0.676 | relative viability ([18]; first compound 0.04 µM): 0.723 | relative viability ([18]; first compound 0.1265 µM): 0.732 | relative viability ([18]; first compound 0.4 µM): 0.7 | relative viability ([18]; first compound 1.265 µM): 0.623 | relative viability ([19]; first compound 0.04 µM): 0.799 | relative viability ([19]; first compound 0.1265 µM): 0.834 | relative viability ([19]; first compound 0.4 µM): 0.963 | relative viability ([19]; first compound 1.265 µM): 0.6 | relative viability ([20]; first compound 0.04 µM): 0.94 | relative viability ([20]; first compound 0.1265 µM): 0.937 | relative viability ([20]; first compound 0.4 µM): 0.706 | relative viability ([20]; first compound 1.265 µM): 0.322 | relative viability ([21]; first compound 0.04 µM): 0.755 | relative viability ([21]; first compound 0.1265 µM): 0.829 | relative viability ([21]; first compound 0.4 µM): 0.703 | relative viability ([21]; first compound 1.265 µM): 0.81 | relative viability ([22]; first compound 0.04 µM): 1.06 | relative viability ([22]; first compound 0.1265 µM): 1.1 | relative viability ([22]; first compound 0.4 µM): 0.946 | relative viability ([22]; first compound 1.265 µM): 0.799
